Results taken from patent US10597387B2, “Methods to treat lymphoplasmacytic lymphoma” (Dana-Farber Cancer Institute, Inc., priority 2013, dated 2020).
Where two headings read alike, the source gives them in different places.

Key:
[1] = test system: ZC1/HGK, ZC2/TNIK, ZC3/MINK; test: KiNativ kinase profiling; type: binding, Homo sapiens; settings: Lys2, 1 μM, A375 cells
PKN1 = PKN1 (Homo sapiens (Human), UniProt Q16512); test: KiNativ kinase profiling; type: binding; settings: Lys1, A375 cells, read-out: inhibition of kinase labeling
JAK1 = JAK1 (Homo sapiens (Human), UniProt P23458); test: KiNativ kinase profiling; type: binding; settings: Protein Kinase Domain, A375 cells, read-out: inhibition of kinase labeling
LOK = LOK (Homo sapiens (Human), UniProt O94804); test: KiNativ kinase profiling; type: binding; settings: Lys2, A375 cells, read-out: inhibition of kinase labeling
MST3 = MST3 (Homo sapiens (Human), UniProt Q9Y6E0); test: KiNativ kinase profiling; type: binding; settings: Lys2, A375 cells, read-out: inhibition of kinase labeling
BTK [2] = molecular target: T1, BTK (Homo sapiens (Human), UniProt Q06187); test: KiNativ kinase profiling; type: binding; settings: read-out: inhibition of kinase labeling
MAP3K1 = MAP3K1 (Homo sapiens (Human), UniProt Q13233); test: KiNativ kinase profiling; type: binding; settings: Lys2, A375 cells, read-out: inhibition of kinase labeling
PKD1, PKD2 = test: KiNativ kinase profiling; type: binding, Homo sapiens; settings: Lys2, 1 μM, A375 cells
ZAP70 = ZAP70 (Homo sapiens (Human), UniProt P43403); test: KiNativ kinase profiling; type: binding; settings: Activation Loop, A375 cells, read-out: inhibition of kinase labeling
STLK6 = STLK6 (Homo sapiens (Human), UniProt Q9C0K7); test: KiNativ kinase profiling; type: binding; settings: Lys2, A375 cells, read-out: inhibition of kinase labeling
BTK [3] = molecular target: T1, BTK; test: Invitrogen Select Screening kinase assay; type: biochemical; settings: in vitro
Excerpt: The in vitro activity of the compounds described herein in inhibiting TAK1, HCK, and other kinases were obtained using an Invitrogen Select Screening assay as known in the art. The IC50 values determined from this assay are shown below.

NEK7 = NEK7 (Homo sapiens (Human), UniProt Q8TDX7); test: KiNativ kinase profiling; type: binding; settings: Lys1, A375 cells, read-out: inhibition of kinase labeling
CaMK4 = CaMK4 (Homo sapiens (Human), UniProt Q16566); test: KiNativ kinase profiling; type: binding; settings: Lys2, A375 cells, read-out: inhibition of kinase labeling
CHK2 = CHK2 (Homo sapiens (Human), UniProt O96017); test: KiNativ kinase profiling; type: binding; settings: Lys1, A375 cells, read-out: inhibition of kinase labeling
MAP2K4 = MAP2K4 (Homo sapiens (Human), UniProt P45985); test: KiNativ kinase profiling; type: binding; settings: Lys2, A375 cells, read-out: inhibition of kinase labeling
MARK2, MARK3 = test: KiNativ kinase profiling; type: binding, Homo sapiens; settings: Lys2, 1 μM, A375 cells
PITSLRE = test: KiNativ kinase profiling; type: binding, Homo sapiens; settings: Lys2, 1 μM, A375 cells
PIP4K2A = PIP4K2A (Homo sapiens (Human), UniProt P48426); test: KiNativ kinase profiling; type: binding; settings: ATP, A375 cells, read-out: inhibition of kinase labeling
AMPKa1, AMPKa2 = test: KiNativ kinase profiling; type: binding, Homo sapiens; settings: Lys1, 1 μM, A375 cells
CDC2 = CDC2 (Homo sapiens (Human), UniProt P06493); test: KiNativ kinase profiling; type: binding; settings: Lys2, A375 cells, read-out: inhibition of kinase labeling
PYK2 = PYK2 (Homo sapiens (Human), UniProt Q14289); test: KiNativ kinase profiling; type: binding; settings: Activation Loop, A375 cells, read-out: inhibition of kinase labeling
RSK1 domain2 = RSK1 domain2 (Homo sapiens (Human), UniProt Q15418); test: KiNativ kinase profiling; type: binding; settings: Lys2, A375 cells, read-out: inhibition of kinase labeling
MARK3 = MARK3 (Homo sapiens (Human), UniProt P27448); test: KiNativ kinase profiling; type: binding; settings: Lys1, A375 cells, read-out: inhibition of kinase labeling
FRAP = FRAP (Homo sapiens (Human), UniProt P42345); test: KiNativ kinase profiling; type: binding; settings: ATP, A375 cells, read-out: inhibition of kinase labeling
Erk1 = Erk1 (Homo sapiens (Human), UniProt P27361); test: KiNativ kinase profiling; type: binding; settings: Lys2, A375 cells, read-out: inhibition of kinase labeling
p70S6K = p70S6K (Homo sapiens (Human), UniProt P23443); test: KiNativ kinase profiling; type: binding; settings: Lys2, A375 cells, read-out: inhibition of kinase labeling
AurB = AurB (Homo sapiens (Human), UniProt Q96GD4); test: KiNativ kinase profiling; type: binding; settings: Lys1, A375 cells, read-out: inhibition of kinase labeling
ABL, ARG = test: KiNativ kinase profiling; type: binding, Homo sapiens; settings: Activation Loop, 1 μM, A375 cells
CaMK2d = CaMK2d (Homo sapiens (Human), UniProt Q13557); test: KiNativ kinase profiling; type: binding; settings: Lys1, A375 cells, read-out: inhibition of kinase labeling
AurA = AurA (Homo sapiens (Human), UniProt O14965); test: KiNativ kinase profiling; type: binding; settings: Lys2, A375 cells, read-out: inhibition of kinase labeling
PKCi = PKCi (Homo sapiens (Human), UniProt P41743); test: KiNativ kinase profiling; type: binding; settings: Lys2, A375 cells, read-out: inhibition of kinase labeling
eEF2K = eEF2K (Homo sapiens (Human), UniProt O00418); test: KiNativ kinase profiling; type: binding; settings: ATP, A375 cells, read-out: inhibition of kinase labeling
GSK3A = GSK3A (Homo sapiens (Human), UniProt P49840); test: KiNativ kinase profiling; type: binding; settings: Lys2, A375 cells, read-out: inhibition of kinase labeling

T1 sequence (Q06187 whole entry): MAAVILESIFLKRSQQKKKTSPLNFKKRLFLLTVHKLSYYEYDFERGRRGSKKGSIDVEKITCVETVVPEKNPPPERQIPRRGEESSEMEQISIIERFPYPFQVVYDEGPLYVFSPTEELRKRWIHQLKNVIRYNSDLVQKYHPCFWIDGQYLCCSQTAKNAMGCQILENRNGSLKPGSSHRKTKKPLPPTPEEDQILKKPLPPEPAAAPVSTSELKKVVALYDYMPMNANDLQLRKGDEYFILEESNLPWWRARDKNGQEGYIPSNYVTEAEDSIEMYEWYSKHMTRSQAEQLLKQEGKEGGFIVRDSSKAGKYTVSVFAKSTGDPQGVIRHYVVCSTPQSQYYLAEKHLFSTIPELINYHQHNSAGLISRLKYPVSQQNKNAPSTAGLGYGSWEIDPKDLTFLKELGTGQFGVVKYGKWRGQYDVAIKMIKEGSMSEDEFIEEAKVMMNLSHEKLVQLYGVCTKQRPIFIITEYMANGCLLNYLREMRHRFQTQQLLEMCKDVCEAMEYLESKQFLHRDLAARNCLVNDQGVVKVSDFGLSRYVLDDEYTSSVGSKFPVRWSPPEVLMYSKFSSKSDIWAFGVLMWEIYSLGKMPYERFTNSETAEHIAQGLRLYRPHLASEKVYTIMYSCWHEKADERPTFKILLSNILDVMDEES
CaMK4, sequence (Q16566 whole entry): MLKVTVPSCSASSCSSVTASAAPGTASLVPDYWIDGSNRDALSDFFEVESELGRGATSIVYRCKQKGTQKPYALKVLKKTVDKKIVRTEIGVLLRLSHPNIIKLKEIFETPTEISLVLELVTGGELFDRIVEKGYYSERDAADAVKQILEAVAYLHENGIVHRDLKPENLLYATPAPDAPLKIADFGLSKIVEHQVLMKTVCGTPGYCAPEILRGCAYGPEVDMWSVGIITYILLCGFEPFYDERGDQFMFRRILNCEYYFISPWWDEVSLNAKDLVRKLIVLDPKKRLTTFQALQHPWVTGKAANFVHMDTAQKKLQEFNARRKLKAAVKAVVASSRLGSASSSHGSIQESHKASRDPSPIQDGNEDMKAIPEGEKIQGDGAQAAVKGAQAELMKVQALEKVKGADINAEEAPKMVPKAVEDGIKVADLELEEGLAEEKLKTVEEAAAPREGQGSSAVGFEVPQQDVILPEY
p70S6K, sequence (P23443 whole entry): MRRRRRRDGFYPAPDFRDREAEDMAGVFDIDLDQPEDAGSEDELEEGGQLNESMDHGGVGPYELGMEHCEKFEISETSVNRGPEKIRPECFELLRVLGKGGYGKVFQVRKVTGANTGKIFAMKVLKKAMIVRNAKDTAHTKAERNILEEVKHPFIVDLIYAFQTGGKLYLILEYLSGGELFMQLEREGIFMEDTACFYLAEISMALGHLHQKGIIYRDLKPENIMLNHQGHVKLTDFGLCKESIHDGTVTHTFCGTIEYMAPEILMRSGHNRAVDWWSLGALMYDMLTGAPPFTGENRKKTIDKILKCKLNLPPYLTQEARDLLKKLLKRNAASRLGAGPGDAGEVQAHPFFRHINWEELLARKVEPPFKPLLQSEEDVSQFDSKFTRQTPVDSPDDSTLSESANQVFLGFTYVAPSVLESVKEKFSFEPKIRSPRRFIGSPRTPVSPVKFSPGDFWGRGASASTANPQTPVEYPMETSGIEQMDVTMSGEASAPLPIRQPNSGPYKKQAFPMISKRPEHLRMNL
MST3, sequence (Q9Y6E0 whole entry): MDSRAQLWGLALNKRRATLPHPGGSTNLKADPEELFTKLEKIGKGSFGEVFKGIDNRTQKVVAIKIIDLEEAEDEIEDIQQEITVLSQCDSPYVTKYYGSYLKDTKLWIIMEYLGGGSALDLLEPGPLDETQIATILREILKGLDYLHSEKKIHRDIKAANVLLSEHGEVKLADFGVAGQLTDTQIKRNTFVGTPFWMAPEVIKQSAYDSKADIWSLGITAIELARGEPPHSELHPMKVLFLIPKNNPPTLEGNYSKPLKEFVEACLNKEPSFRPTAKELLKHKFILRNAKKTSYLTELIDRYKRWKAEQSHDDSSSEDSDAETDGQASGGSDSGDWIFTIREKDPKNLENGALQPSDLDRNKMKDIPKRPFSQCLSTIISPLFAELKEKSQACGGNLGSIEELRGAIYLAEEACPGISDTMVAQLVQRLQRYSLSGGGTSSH
CDC2, sequence (P06493 whole entry): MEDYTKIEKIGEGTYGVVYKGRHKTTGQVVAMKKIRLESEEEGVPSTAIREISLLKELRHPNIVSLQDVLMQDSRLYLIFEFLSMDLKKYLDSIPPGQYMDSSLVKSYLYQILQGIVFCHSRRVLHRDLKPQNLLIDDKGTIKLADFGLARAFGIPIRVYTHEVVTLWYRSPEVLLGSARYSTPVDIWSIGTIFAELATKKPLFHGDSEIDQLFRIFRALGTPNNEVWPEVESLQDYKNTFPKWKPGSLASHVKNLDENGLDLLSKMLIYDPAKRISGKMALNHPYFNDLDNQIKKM
AurB, sequence (Q96GD4 whole entry): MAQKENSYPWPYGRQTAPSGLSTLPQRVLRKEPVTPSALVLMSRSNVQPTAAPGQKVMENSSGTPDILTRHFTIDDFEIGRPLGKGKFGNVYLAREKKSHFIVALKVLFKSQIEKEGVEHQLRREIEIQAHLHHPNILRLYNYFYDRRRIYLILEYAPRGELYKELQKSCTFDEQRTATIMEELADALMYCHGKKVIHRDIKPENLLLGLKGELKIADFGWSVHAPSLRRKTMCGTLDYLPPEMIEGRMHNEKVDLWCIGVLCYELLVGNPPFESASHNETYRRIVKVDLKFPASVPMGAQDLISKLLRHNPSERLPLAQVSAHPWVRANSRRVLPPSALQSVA
LOK, sequence (O94804 whole entry): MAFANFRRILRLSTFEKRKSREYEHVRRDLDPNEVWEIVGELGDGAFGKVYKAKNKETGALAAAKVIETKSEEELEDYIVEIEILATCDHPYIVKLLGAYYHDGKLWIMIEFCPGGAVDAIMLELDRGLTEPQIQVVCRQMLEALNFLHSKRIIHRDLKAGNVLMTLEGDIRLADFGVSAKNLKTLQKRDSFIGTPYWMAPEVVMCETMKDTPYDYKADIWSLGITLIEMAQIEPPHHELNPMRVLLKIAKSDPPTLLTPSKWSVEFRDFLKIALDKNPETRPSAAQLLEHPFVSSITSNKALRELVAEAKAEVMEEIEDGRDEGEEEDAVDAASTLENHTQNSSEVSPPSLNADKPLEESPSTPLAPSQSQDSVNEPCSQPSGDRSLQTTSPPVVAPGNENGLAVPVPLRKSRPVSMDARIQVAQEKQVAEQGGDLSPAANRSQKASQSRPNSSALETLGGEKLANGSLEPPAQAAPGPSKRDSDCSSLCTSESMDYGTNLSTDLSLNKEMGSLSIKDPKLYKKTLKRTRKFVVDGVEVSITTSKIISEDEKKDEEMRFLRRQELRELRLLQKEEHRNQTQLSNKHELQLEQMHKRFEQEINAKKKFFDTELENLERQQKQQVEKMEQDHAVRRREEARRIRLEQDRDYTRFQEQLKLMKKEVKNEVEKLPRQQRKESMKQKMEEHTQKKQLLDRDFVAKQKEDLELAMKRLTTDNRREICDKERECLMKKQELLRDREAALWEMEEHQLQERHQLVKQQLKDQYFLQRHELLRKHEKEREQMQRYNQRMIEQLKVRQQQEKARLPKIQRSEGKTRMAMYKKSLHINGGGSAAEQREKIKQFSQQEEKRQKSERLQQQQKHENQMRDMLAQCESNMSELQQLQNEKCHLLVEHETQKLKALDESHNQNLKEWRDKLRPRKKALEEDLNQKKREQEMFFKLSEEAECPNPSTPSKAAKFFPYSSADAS
MAP2K4, sequence (P45985 whole entry): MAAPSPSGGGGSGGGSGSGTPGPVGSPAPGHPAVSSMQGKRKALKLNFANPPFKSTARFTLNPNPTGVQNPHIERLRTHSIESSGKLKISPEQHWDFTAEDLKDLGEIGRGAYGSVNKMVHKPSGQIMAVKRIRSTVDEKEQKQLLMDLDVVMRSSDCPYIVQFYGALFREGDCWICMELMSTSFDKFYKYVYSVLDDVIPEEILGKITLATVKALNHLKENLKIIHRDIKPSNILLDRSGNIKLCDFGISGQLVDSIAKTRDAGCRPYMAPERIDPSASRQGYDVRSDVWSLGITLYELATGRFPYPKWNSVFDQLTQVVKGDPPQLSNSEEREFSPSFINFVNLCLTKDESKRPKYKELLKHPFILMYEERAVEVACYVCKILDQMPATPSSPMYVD
RSK1 domain2, sequence (Q15418 whole entry, the tested form may be a part): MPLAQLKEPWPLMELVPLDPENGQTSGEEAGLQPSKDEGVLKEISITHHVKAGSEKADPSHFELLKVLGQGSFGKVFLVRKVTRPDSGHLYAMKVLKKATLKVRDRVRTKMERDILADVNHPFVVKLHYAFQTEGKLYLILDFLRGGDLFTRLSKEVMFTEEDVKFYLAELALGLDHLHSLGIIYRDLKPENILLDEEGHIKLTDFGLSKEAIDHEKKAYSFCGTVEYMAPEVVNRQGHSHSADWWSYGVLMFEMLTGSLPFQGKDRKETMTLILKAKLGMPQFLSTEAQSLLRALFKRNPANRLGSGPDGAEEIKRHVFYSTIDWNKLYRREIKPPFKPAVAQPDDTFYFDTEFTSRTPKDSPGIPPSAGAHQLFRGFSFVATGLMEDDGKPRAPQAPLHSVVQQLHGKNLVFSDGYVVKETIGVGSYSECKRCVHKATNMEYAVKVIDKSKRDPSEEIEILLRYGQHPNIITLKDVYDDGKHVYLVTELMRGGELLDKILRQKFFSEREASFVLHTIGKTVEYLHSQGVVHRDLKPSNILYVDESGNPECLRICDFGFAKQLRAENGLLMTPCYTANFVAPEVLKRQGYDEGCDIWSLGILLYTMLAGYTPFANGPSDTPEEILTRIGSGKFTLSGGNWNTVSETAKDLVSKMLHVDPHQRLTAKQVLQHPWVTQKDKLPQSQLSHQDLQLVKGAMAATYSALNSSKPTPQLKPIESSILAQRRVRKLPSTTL

Question: What does the source list for Cc1ccc(C(=O)Nc2cccc(C(C)(C)C#N)c2)cc1NC(=O)c1cncc(-c2cccs2)c1 [I-6, N-(5-((3-(2-cyanopropan-2-yl)phenyl)carbamoyl)-2-methylphenyl)-5-(thiophen-2-yl)nicotinamide]?
Answer: inhibition of kinase labeling [1]: 27%; inhibition at 1 µM (PKN1): -35.2%; inhibition at 1 µM (JAK1): 16.6%; inhibition at 1 µM (LOK): 23.9%; inhibition at 1 µM (MST3): -0.4%; inhibition at 1 µM (BTK [2]; Activation Loop, A375 cells): -12.5%; inhibition at 1 µM (BTK [2]; Lys1, A375 cells): 7.8%; inhibition at 1 µM (MAP3K1): 9.8%; inhibition of kinase labeling (PKD1, PKD2): −2.5%; inhibition at 1 µM (ZAP70): 7.5%; inhibition at 1 µM (STLK6): 44.8%; IC50 (BTK [3]): 1.15 µM; inhibition at 1 µM (NEK7): 10.7%; inhibition at 1 µM (CaMK4): 20.7%; inhibition at 1 µM (CHK2): 4.7%; inhibition at 1 µM (MAP2K4): -14.6%; inhibition of kinase labeling (MARK2, MARK3): 17.2%; inhibition of kinase labeling (PITSLRE): 1.9%; inhibition at 1 µM (PIP4K2A): 12.8%; inhibition of kinase labeling (AMPKa1, AMPKa2): 15.3%; inhibition at 1 µM (CDC2): -7.9%; inhibition at 1 µM (PYK2): 5.4%; inhibition at 1 µM (RSK1 domain2): -22.9%; inhibition at 1 µM (MARK3): -2.2%; inhibition at 1 µM (FRAP): -8.8%; inhibition at 1 µM (Erk1): -3%; inhibition at 1 µM (p70S6K): 7.4%; inhibition at 1 µM (AurB): -94%; inhibition of kinase labeling (ABL, ARG): >90%; inhibition at 1 µM (CaMK2d): -1.1%; inhibition at 1 µM (AurA): -21.6%; inhibition at 1 µM (PKCi): -17.5%; inhibition at 1 µM (eEF2K): 12%; inhibition at 1 µM (GSK3A): 17.3%
